Results taken from ChEMBL document CHEMBL1150189, “Determination of cardenolides in hairy root cultures of Digitalis lanata by enzyme-linked immunosorbent assay” (J Nat Prod, 1990).

Organism: Mus musculus
Assay: Binding affinity to mouse Monoclonal antibody DIG 64.2B.5 by ELISA relative to digoxin

| Compound | Ratio IC50 |
| --- | --- |
| CC(=O)O[C@H]1C[C@H](O[C@H]2[C@@H](O)C[C@H](O[C@H]3[C@@H](O)C[C@H](O[C@H]4CC[C@@]5(C)[C@H](CC[C@@H]6[C@@H]5C[C@@H](O)[C@]5(C)[C@@H](C7=CC(=O)OC7)CC[C@]65O)C4)O[C@@H]3C)O[C@@H]2C)O[C@H](C)[C@H]1O[C@@H]1O[C@H](CO)[C@@H](O)[C@H](O)[C@H]1O | 1.2 |
| C[C@]12CC[C@H](O)C[C@H]1CC[C@@H]1[C@@H]2CC[C@]2(C)[C@@H](C3=CC(=O)OC3)CC[C@]12O | 23000 |
| C[C@H]1O[C@@H](O[C@H]2[C@@H](O)C[C@H](O[C@H]3[C@@H](O)C[C@H](O[C@H]4CC[C@@]5(C)[C@H](CC[C@@H]6[C@@H]5CC[C@]5(C)[C@@H](C7=CC(=O)OC7)[C@@H](O)C[C@]65O)C4)O[C@@H]3C)O[C@@H]2C)C[C@H](O)[C@@H]1O | 46 |
| CO[C@@H]1[C@@H](O)[C@H](O[C@H]2CC[C@@]3(C)[C@H](CC[C@@H]4[C@@H]3CC[C@]3(C)[C@@H](C5=CC(=O)OC5)[C@@H](O)C[C@]43O)C2)O[C@H](C)[C@@H]1O[C@@H]1O[C@H](CO)[C@@H](O)[C@H](O)[C@H]1O | 16000 |
| C[C@]12CC[C@H](O)C[C@H]1CC[C@@H]1[C@@H]2C[C@@H](O)[C@]2(C)[C@@H](C3=CC(=O)OC3)CC[C@]12O | 1.2 |
| C[C@H]1O[C@@H](O[C@H]2[C@@H](O)C[C@H](O[C@H]3[C@@H](O)C[C@H](O[C@H]4CC[C@@]5(C)[C@H](CC[C@@H]6[C@@H]5CC[C@]5(C)[C@@H](C7=CC(=O)OC7)CC[C@]65O)C4)O[C@@H]3C)O[C@@H]2C)C[C@H](O)[C@@H]1O | 2800 |
| C[C@@H]1CC[C@@]2(OC1)O[C@H]1[C@@H](O)[C@H]3[C@@H]4CC[C@H]5C[C@@H](O[C@@H]6O[C@H](CO)[C@H](O[C@@H]7O[C@H](CO)C(O)[C@H](O[C@@H]8OC[C@@H](O)[C@H](O)[C@H]8O)[C@H]7O[C@@H]7O[C@H](CO)[C@H](O)[C@H](O[C@@H]8O[C@H](CO)[C@@H](O)[C@H](O)[C@H]8O)[C@H]7O)[C@H](O)[C@H]6O)[C@H](O)C[C@]5(C)[C@H]4CC[C@]3(C)[C@H]1[C@@H]2C (stereo partly specified) | > 6e+06 |
| C[C@H]1OC(O)C[C@H](O)[C@@H]1O (stereo partly specified) | > 1.2e+08 |
| C[C@]12CC[C@H](O)C[C@H]1CC[C@@H]1[C@@H]2CC[C@]2(C)[C@@H](C3=CC(=O)OC3)[C@@H](O)C[C@]12O | > 540000 |
| C[C@@H]1O[C@@H](O[C@H]2C[C@@H](O)[C@]3(CO)[C@H]4[C@H](O)C[C@]5(C)[C@@H](C6=CC(=O)OC6)CC[C@]5(O)[C@@H]4CC[C@]3(O)C2)[C@H](O)[C@H](O)[C@H]1O | > 6e+06 |
| C[C@H]1O[C@@H](O[C@H]2CC[C@@]3(C)[C@H](CC[C@@H]4[C@@H]3C[C@@H](O)[C@]3(C)[C@@H](C5=CC(=O)OC5)CC[C@]43O)C2)C[C@H](O)[C@@H]1O[C@H]1C[C@H](O)[C@H](O[C@H]2C[C@H](O)[C@H](O[C@@H]3O[C@H](CO)[C@@H](O)[C@H](O)[C@H]3O)[C@@H](C)O2)[C@@H](C)O1 | 1.8 |
